Assay type in all cases: cell-based, mouse
In experiment [1] the test system is β-galactosidase in CMV-LacZ C2C12 myotubes. Briefly: CMV-LacZ secondary screen in C2C12 myotubes (β-Gal stabilizing assay). Particulars: for CMV-LACZ in Myotubes, signal relative to DMSO: C2C12 CMV-LacZ myotubes, fold relative to DMSO; for CMV-LACZ in Myotubes (β-galactosidase activity relative to DMSO): CMV-LacZ C2C12 myotubes, 96-well format. The method, boiled down:
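CMV-LacZ C2C12 line (clonal, FDG-screened); myoblasts/myotubes dosed 0.5–40 μM (0.5, 1, 5, 10, 20, 40 μM); n=2 per point; β-gal stabilization read-out.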

In experiment [2] the test system is α7 integrin (LacZ reporter in α7+/LacZ myotubes). The experiment is described as follows: Myotube α7 integrin FDG assay (Burkin assay in myotubes, 96-well). Particulars: myotubes.
In experiment [3] the test system is α7 integrin (LacZ reporter in α7βgal+/− myoblasts). The experiment is described as follows: Myoblast α7+/LacZ integrin FDG assay (Burkin assay in myoblasts, 96-well). Particulars: α7+/LacZ myoblasts, 96-well.

Consider `COC(=O)c1ccccc1NC(=O)c1cc[n+]([O-])cc1` [MLS001167169-01], for which the “CMV-LACZ in Myotubes, signal relative to DMSO” value in experiment [1] (5 uM) was 0.9323; in experiment [1] (10 uM), 1.009; in experiment [1] (20 uM) it was 1.085; in experiment [1] (40 uM), 1.103. Moreover, the “Burkin Assay in Myotubes, α7 integrin LacZ reporter signal relative to DMSO” value in experiment [2] (0.5 uM) came to 0.8925; in experiment [2] (1 uM), 0.9375; in experiment [2] (5 uM), 1.041; in experiment [2] (10 uM), 0.9696; in experiment [2] (20 uM) it was 1.3902; in experiment [2] (40 uM), 0.6262. The “Burkin Assay in Myoblasts, signal relative to DMSO” value came to 1.032 in experiment [3] (0.5 uM); 0.8858 in experiment [3] (1 uM); 0.9547 in experiment [3] (5 uM); 0.9378 in experiment [3] (10 uM); 0.8133 in experiment [3] (20 uM); 0.9062 in experiment [3] (40 uM).
With `O=C(Cn1cccc1C(=O)c1ccccc1)NCCCc1ccccc1` [MLS001110618-01], the “CMV-LACZ in Myotubes, signal relative to DMSO” value in experiment [1] (5 uM) came to 0.8954; in experiment [1] (10 uM), 0.9336; in experiment [1] (20 uM), 1.0555; in experiment [1] (40 uM) it was 0.4765. The “Burkin Assay in Myotubes, α7 integrin LacZ reporter signal relative to DMSO” value in experiment [2] (0.5 uM) was found to be 0.9526; in experiment [2] (1 uM) it was 1.067; in experiment [2] (5 uM), 1.114; in experiment [2] (10 uM) it was 1.252; in experiment [2] (20 uM), 1.0381; in experiment [2] (40 uM), 0.9463. Moreover, the “Burkin Assay in Myoblasts, signal relative to DMSO” value is given as 0.9525 in experiment [3] (0.5 uM); 1.03 in experiment [3] (1 uM); 0.9228 in experiment [3] (5 uM); 1.005 in experiment [3] (10 uM); 0.9713 in experiment [3] (20 uM); 1.083 in experiment [3] (40 uM).
For `COc1ccc(CCNC(=O)c2cc(-c3cc(C)ccc3O)n[nH]2)cc1OC` [MLS000552080-01], the “CMV-LACZ in Myotubes, signal relative to DMSO” value turned out to be 1.197 in experiment [1] (5 uM), 1.0688 in experiment [1] (10 uM), 0.9522 in experiment [1] (20 uM) and 0.8044 in experiment [1] (40 uM). Also, the “Burkin Assay in Myotubes, α7 integrin LacZ reporter signal relative to DMSO” value in experiment [2] (0.5 uM) turned out to be 0.9672; in experiment [2] (1 uM), 1.15; in experiment [2] (5 uM) it was 1.214; in experiment [2] (10 uM), 1.24; in experiment [2] (20 uM), 1.0378; in experiment [2] (40 uM), 0.9286. The “Burkin Assay in Myoblasts, signal relative to DMSO” value turned out to be 0.9689 in experiment [3] (0.5 uM); 0.9784 in experiment [3] (1 uM); 1.056 in experiment [3] (5 uM); 1.089 in experiment [3] (10 uM); 0.9333 in experiment [3] (20 uM); 0.8855 in experiment [3] (40 uM).
Regarding `CC1(C)CC(=O)C=C(Nc2ccc(C(=O)O)c(O)c2)C1` [MLS001198693-01], the “CMV-LACZ in Myotubes, signal relative to DMSO” value in experiment [1] (5 uM) is 1.092; in experiment [1] (10 uM) it was 0.9258; in experiment [1] (20 uM) it was 1.025; in experiment [1] (40 uM) it was 1.112. The “Burkin Assay in Myotubes, α7 integrin LacZ reporter signal relative to DMSO” value in experiment [2] (0.5 uM) was found to be 0.96; in experiment [2] (1 uM), 0.9048; in experiment [2] (5 uM) it was 1.011; in experiment [2] (10 uM), 0.9514; in experiment [2] (20 uM) it was 0.9319; in experiment [2] (40 uM), 1.116. Moreover, the “Burkin Assay in Myoblasts, signal relative to DMSO” value in experiment [3] (0.5 uM) was 0.9617; in experiment [3] (1 uM), 0.5426; in experiment [3] (5 uM), 0.9229; in experiment [3] (10 uM), 0.9137; in experiment [3] (20 uM) it was 0.9351; in experiment [3] (40 uM), 0.9164.
Turning to `CCCCN(CCCC)CCNC(=O)c1cn(C)c2ccc(S(=O)(=O)N(C)C3CCCCC3)cc2c1=O` [MLS000913117-01], the “CMV-LACZ in Myotubes, signal relative to DMSO” value amounted to 0.8036 in experiment [1] (5 uM), 0.8262 in experiment [1] (10 uM), 0.5938 in experiment [1] (20 uM) and 0.6538 in experiment [1] (40 uM). Further, the “Burkin Assay in Myotubes, α7 integrin LacZ reporter signal relative to DMSO” value in experiment [2] (0.5 uM) was 1.09; in experiment [2] (1 uM), 1.208; in experiment [2] (5 uM) it was 0.9655; in experiment [2] (10 uM), 0.6623; in experiment [2] (20 uM), 0.495; in experiment [2] (40 uM), 0.3911. For the same compound, the “Burkin Assay in Myoblasts, signal relative to DMSO” value in experiment [3] (0.5 uM) is 0.9085; in experiment [3] (1 uM), 0.9155; in experiment [3] (5 uM) it was 0.9138; in experiment [3] (10 uM), 0.6729; in experiment [3] (20 uM) it was 0.1952; in experiment [3] (40 uM) it was 0.05713.
Take `COc1ccccc1C(=O)NCCOc1ccc(C(C)(C)C)cc1` [MLS001179624-01]: the “CMV-LACZ in Myotubes, signal relative to DMSO” value in experiment [1] (5 uM) came to 0.8604; in experiment [1] (10 uM) it was 0.8788; in experiment [1] (20 uM), 0.452; in experiment [1] (40 uM) it was 0.4965. Besides, the “Burkin Assay in Myotubes, α7 integrin LacZ reporter signal relative to DMSO” value in experiment [2] (0.5 uM) was determined as 0.9052; in experiment [2] (1 uM), 0.9709; in experiment [2] (5 uM), 1.048; in experiment [2] (10 uM) it was 1.104; in experiment [2] (20 uM) it was 0.8903; in experiment [2] (40 uM), 0.2183. Also, the “Burkin Assay in Myoblasts, signal relative to DMSO” value stood at 0.993 in experiment [3] (0.5 uM); 0.9963 in experiment [3] (1 uM); 0.9515 in experiment [3] (5 uM); 0.9314 in experiment [3] (10 uM); 0.879 in experiment [3] (20 uM); 0.8828 in experiment [3] (40 uM).
As to `CC(=O)Nc1ccc(NC(=O)[C@@H](NC(=O)c2cccc(C)c2)C(C)C)cc1` [MLS001176897-01], the “CMV-LACZ in Myotubes (β-galactosidase activity relative to DMSO)” value in experiment [1] (5 uM) came to 1.009; in experiment [1] (10 uM) it was 0.797; in experiment [1] (20 uM), 1.121; in experiment [1] (40 uM), 1.046. Moreover, the “Burkin Assay in Myotubes (signal relative to DMSO)” value is listed as 0.9577 in experiment [2] (0.5 uM); 1.073 in experiment [2] (1 uM); 1.022 in experiment [2] (5 uM); 1.194 in experiment [2] (10 uM); 1.145 in experiment [2] (20 uM); 1.163 in experiment [2] (40 uM). For the same compound, the “Burkin Assay in Myoblasts, value relative to DMSO” value in experiment [3] (0.5 uM) amounted to 0.9342; in experiment [3] (1 uM), 0.9456; in experiment [3] (5 uM), 0.9058; in experiment [3] (10 uM), 0.9978; in experiment [3] (20 uM) it was 0.9458; in experiment [3] (40 uM), 0.9475.
As for `Cl.O=C(CN1CCOCC1)NCc1cc([N+](=O)[O-])ccc1O` [MLS001211976-01], the “CMV-LACZ in Myotubes, signal relative to DMSO” value was 0.8547 in experiment [1] (5 uM), 0.9979 in experiment [1] (10 uM), 0.9697 in experiment [1] (20 uM) and 1.014 in experiment [1] (40 uM). The “Burkin Assay in Myotubes, α7 integrin LacZ reporter signal relative to DMSO” value stood at 1.032 in experiment [2] (0.5 uM); 1.2336 in experiment [2] (1 uM); 1.241 in experiment [2] (5 uM); 1.199 in experiment [2] (10 uM); 1.099 in experiment [2] (20 uM); 1.1302 in experiment [2] (40 uM). For the same compound, the “Burkin Assay in Myoblasts, signal relative to DMSO” value in experiment [3] (0.5 uM) was determined as 0.9583; in experiment [3] (1 uM), 0.946; in experiment [3] (5 uM), 0.9018; in experiment [3] (10 uM), 0.9154; in experiment [3] (20 uM) it was 0.9417; in experiment [3] (40 uM) it was 0.8952.

The record behind these values is patent US9980943B2, “Methods of treating muscular dystrophy” (BOARD OF REGENTS OF THE NEVADA SYSTEM OF HIGHER EDUCATION, …, priority 2013, dated 2018).
